Measured values as given in the CheMixHub viscosity set.
± gives the uncertainty stated by the source.

Assay: xn = mol fraction of the nth substance listed

CC(C)OCCO + CCCO
298.15 K, 101.33 kPa
Details	viscosity [mPa·s]
x1 = 0.0192	1.947 ± 0.016
x1 = 0.0257	1.944 ± 0.016
x1 = 0.045	1.941 ± 0.016
x1 = 0.0645	1.938 ± 0.016
x1 = 0.081	1.933 ± 0.016
x1 = 0.1072	1.93 ± 0.016
x1 = 0.1486	1.927 ± 0.016
x1 = 0.1863	1.923 ± 0.016
x1 = 0.2438	1.919 ± 0.017
x1 = 0.2942	1.914 ± 0.017
x1 = 0.3545	1.916 ± 0.017
x1 = 0.3782	1.921 ± 0.018
x1 = 0.4251	1.929 ± 0.018
x1 = 0.4749	1.938 ± 0.019
x1 = 0.5261	1.949 ± 0.019
x1 = 0.5659	1.958 ± 0.02
x1 = 0.6184	1.971 ± 0.02
x1 = 0.6608	1.983 ± 0.021
x1 = 0.7	1.996 ± 0.022
x1 = 0.7606	2.015 ± 0.022
x1 = 0.8023	2.025 ± 0.023
x1 = 0.8623	2.042 ± 0.024
x1 = 0.8845	2.052 ± 0.024
x1 = 0.9485	2.064 ± 0.025

CNC=O + CCCO
viscosity [mPa·s], 101 kPa
Details	x2 = 0.1009	x2 = 0.2001	x2 = 0.3003	x2 = 0.4003	x2 = 0.5005	x2 = 0.6	x2 = 0.7001	x2 = 0.8009	x2 = 0.9007
303.15 K	1.545 ± 0.015	1.51 ± 0.014	1.475 ± 0.014	1.454 ± 0.013	1.441 ± 0.013	1.444 ± 0.013	1.464 ± 0.013	1.52 ± 0.014	1.605 ± 0.015
308.15 K	1.423 ± 0.014	1.389 ± 0.013	1.357 ± 0.013	1.336 ± 0.012	1.322 ± 0.012	1.321 ± 0.012	1.337 ± 0.012	1.381 ± 0.013	1.448 ± 0.013
313.15 K	1.316 ± 0.013	1.284 ± 0.012	1.252 ± 0.012	1.231 ± 0.011	1.216 ± 0.011	1.213 ± 0.011	1.225 ± 0.011	1.258 ± 0.011	1.31 ± 0.012
318.15 K	1.22 ± 0.012	1.189 ± 0.011	1.158 ± 0.011	1.138 ± 0.011	1.123 ± 0.01	1.118 ± 0.01	1.124 ± 0.01	1.149 ± 0.01	1.188 ± 0.011
323.15 K	1.134 ± 0.011	1.105 ± 0.011	1.075 ± 0.01	1.054 ± 0.0099	1.036 ± 0.0097	1.03 ± 0.0095	1.034 ± 0.0095	1.051 ± 0.0097	1.079 ± 0.01

C/C=C/C(=O)OCC + CCO
viscosity [mPa·s], 101 kPa
Details	x1 = 0.0991	x1 = 0.1985	x1 = 0.2994	x1 = 0.3961	x1 = 0.5006	x1 = 0.6	x1 = 0.6968	x1 = 0.7816	x1 = 0.8996
293.15 K	1.026 ± 0.0082	0.929 ± 0.0077	0.9257 ± 0.0078	0.9219 ± 0.008	0.878 ± 0.0079	0.8293 ± 0.0078	0.8016 ± 0.0079	0.8351 ± 0.0084	0.8122 ± 0.0087
298.15 K	0.9334 ± 0.0076	0.8523 ± 0.0071	0.8465 ± 0.0072	0.8404 ± 0.0074	0.8061 ± 0.0074	0.7663 ± 0.0073	0.7402 ± 0.0073	0.7648 ± 0.0078	0.7535 ± 0.0081
303.15 K	0.8498 ± 0.007	0.7812 ± 0.0066	0.7751 ± 0.0067	0.7739 ± 0.0069	0.7411 ± 0.0068	0.7061 ± 0.0068	0.6855 ± 0.0069	0.7052 ± 0.0073	0.7 ± 0.0076
313.15 K	0.7166 ± 0.0061	0.6615 ± 0.0058	0.6607 ± 0.0059	0.6588 ± 0.006	0.6372 ± 0.006	0.6091 ± 0.006	0.5958 ± 0.0061	0.6134 ± 0.0064	0.6108 ± 0.0067
323.15 K	0.6156 ± 0.0053	0.5747 ± 0.0051	0.5702 ± 0.0052	0.5686 ± 0.0053	0.5537 ± 0.0053	0.5363 ± 0.0054	0.5284 ± 0.0055	0.5414 ± 0.0058	0.5401 ± 0.006

CCCC[n+]1ccn(C)c1.O=[N+]([O-])[O-] + CCO
101 kPa
Details	viscosity [mPa·s]
293.15 K, x1 = 0.8	73.11 ± 12
303.15 K, x1 = 0.6	22.05 ± 2.2

CCOS(=O)(=O)[O-].CC[N+](CC)=C(N(C)C)N(C)C + CCO
viscosity [mPa·s], 100 kPa
Details	x1 = 0.1001	x1 = 0.2003	x1 = 0.2998	x1 = 0.4023	x1 = 0.4998	x1 = 0.6016	x1 = 0.6979	x1 = 0.8024	x1 = 0.8974
293.15 K	2.916 ± 0.024	5.857 ± 0.048	11.49 ± 0.09	20.43 ± 0.17	32.82 ± 0.29	54.53 ± 0.43	82.56 ± 1.6	121 ± 3.8	160.5 ± 6.6
298.15 K	2.62 ± 0.021	5.197 ± 0.042	9.941 ± 0.081	17.2 ± 0.14	27.12 ± 0.23	43.51 ± 0.41	64.03 ± 0.74	91.64 ± 2	119.1 ± 3.6
303.15 K	2.373 ± 0.019	4.64 ± 0.038	8.688 ± 0.071	14.71 ± 0.12	22.61 ± 0.19	35.19 ± 0.32	50.61 ± 0.37	70.75 ± 1	90.75 ± 2
308.15 K	2.155 ± 0.017	4.166 ± 0.034	7.649 ± 0.062	12.71 ± 0.1	19.18 ± 0.16	29.07 ± 0.25	40.85 ± 0.39	55.99 ± 0.49	70.53 ± 1
313.15 K	1.964 ± 0.016	3.765 ± 0.03	6.793 ± 0.055	11.08 ± 0.09	16.48 ± 0.14	24.39 ± 0.21	33.63 ± 0.3	45.19 ± 0.45	56.15 ± 0.5
318.15 K	1.797 ± 0.014	3.419 ± 0.028	6.036 ± 0.049	9.76 ± 0.08	14.28 ± 0.12	20.68 ± 0.18	27.81 ± 0.24	36.81 ± 0.35	45.06 ± 0.45
323.15 K	1.649 ± 0.013	3.118 ± 0.025	5.43 ± 0.044	8.634 ± 0.071	12.47 ± 0.1	17.74 ± 0.15	23.62 ± 0.2	30.6 ± 0.28	36.93 ± 0.35

COC(=O)c1ccccc1 + CCO
viscosity [mPa·s], 100 kPa
Details	x1 = 0.05	x1 = 0.1	x1 = 0.2	x1 = 0.3	x1 = 0.4	x1 = 0.5	x1 = 0.6	x1 = 0.65	x1 = 0.8	x1 = 0.9
293.2 K	1.178 ± 0.025	1.178 ± 0.025	1.207 ± 0.026	1.26 ± 0.027	1.325 ± 0.028	1.402 ± 0.03	1.489 ± 0.032	1.536 ± 0.033	1.701 ± 0.036	1.842 ± 0.039
298.2 K	1.074 ± 0.023	1.076 ± 0.023	1.102 ± 0.024	1.15 ± 0.025	1.208 ± 0.026	1.276 ± 0.027	1.355 ± 0.029	1.397 ± 0.03	1.542 ± 0.033	1.667 ± 0.036
303.2 K	0.98 ± 0.021	0.983 ± 0.021	1.008 ± 0.022	1.052 ± 0.022	1.106 ± 0.024	1.167 ± 0.025	1.238 ± 0.026	1.276 ± 0.027	1.408 ± 0.03	1.518 ± 0.032
308.2 K	0.896 ± 0.019	0.901 ± 0.019	0.925 ± 0.02	0.966 ± 0.021	1.015 ± 0.022	1.072 ± 0.023	1.137 ± 0.024	1.17 ± 0.025	1.291 ± 0.028	1.391 ± 0.03
313.2 K	0.822 ± 0.018	0.827 ± 0.018	0.851 ± 0.018	0.89 ± 0.019	0.936 ± 0.02	0.988 ± 0.021	1.047 ± 0.022	1.079 ± 0.023	1.188 ± 0.025	1.279 ± 0.027
